# Where a name gives a salt, the structure may show the parent alone.
# System: mice
# Test: Neuropharmacological Assay (SmartCube)
# Format: in vivo
# Conditions: i.p. 15 min before behavioral test; 3 doses, most efficacious dose(s) presented
SMILES,AD: ADHD (probability of class match),AG: analgesic (probability of class match),AX: anxiolytic (probability of class match),CE: cognitive enhancer (probability of class match),DP: anti-depressant (probability of class match),HA: hallucinogen (probability of class match),MS: mood stabilizer (probability of class match),PS: anti-psychotic (probability of class match),SD: sedative hypnotic (probability of class match),UN: uncharacterized CNS activity (probability of class match)
"Cl.NCC1OCCCn2nc3ccccc3c21 (centres unmarked) [Compound 56, (4,5-dihydro-1H,3H-[1,4]oxazepino[4,3-b]indazol-1-yl)methanaminium chloride]",+ (LOQ≦ + <5%),+ (LOQ≦ + <5%),+ (LOQ≦ + <5%),+ (LOQ≦ + <5%),+ (LOQ≦ + <5%),+ (LOQ≦ + <5%),+ (LOQ≦ + <5%),+ (LOQ≦ + <5%),+ (LOQ≦ + <5%),+ (LOQ≦ + <5%)
"c1ccc2c3n(nc2c1)CCOC3CN1CC1 (centres unmarked) [Compound 63, 1-(aziridin-1-ylmethyl)-3,4-dihydro-1H-[1,4]oxazino[4,3-b]indazole]",+ (LOQ≦ + <5%),+++ (25%≦ +++ <50%),+ (LOQ≦ + <5%),+ (LOQ≦ + <5%),++ (5%≦ ++ <25%),+ (LOQ≦ + <5%),+ (LOQ≦ + <5%),+ (LOQ≦ + <5%),++ (5%≦ ++ <25%),+ (LOQ≦ + <5%)
"CNCC1OCCn2nc3ccsc3c21.Cl (centres unmarked) [Compound 58, 1-(6,7-dihydro-9H-thieno[3′,2′:3,4]pyrazolo[5,1-c][1,4]oxazin-9-yl)-N-methylmethanaminium chloride]",++ (5%≦ ++ <25%),+ (LOQ≦ + <5%),++ (5%≦ ++ <25%),+ (LOQ≦ + <5%),++++ (50%≦ ++++),++ (5%≦ ++ <25%),+ (LOQ≦ + <5%),+ (LOQ≦ + <5%),++ (5%≦ ++ <25%),+ (LOQ≦ + <5%)
"c1ccc2c3n(nc2c1)CCOC3CN1CCCC1 (centres unmarked) [Compound 19, 1-(pyrrolidin-1-ylmethyl)-3,4-dihydro-1H-[1,4]oxazino[4,3-b]indazole hydrogen chloride salt]",+ (LOQ≦ + <5%),++ (5%≦ ++ <25%),++ (5%≦ ++ <25%),++ (5%≦ ++ <25%),+++ (25%≦ +++ <50%),+ (LOQ≦ + <5%),+ (LOQ≦ + <5%),+ (LOQ≦ + <5%),+ (LOQ≦ + <5%),+ (LOQ≦ + <5%)
"CCN(C)CC1OCCCn2nc3ccccc3c21.Cl (centres unmarked) [Compound 53, N-((4,5-dihydro-1H,3H-[1,4]oxazepino[4,3-b]indazol-1-yl)methyl)-N-methylethanaminium chloride]",+ (LOQ≦ + <5%),+ (LOQ≦ + <5%),++ (5%≦ ++ <25%),+ (LOQ≦ + <5%),++ (5%≦ ++ <25%),+ (LOQ≦ + <5%),+ (LOQ≦ + <5%),+ (LOQ≦ + <5%),++ (5%≦ ++ <25%),++ (5%≦ ++ <25%)
"CCN(C)CC1OCCn2nc3ccccc3c21.Cl (centres unmarked) [Compound 28, N-((3,4-dihydro-1H-[1,4]oxazino[4,3-b]indazol-1-yl)methyl)-N-methylethanaminium chloride]",+ (LOQ≦ + <5%),+ (LOQ≦ + <5%),++ (5%≦ ++ <25%),++ (5%≦ ++ <25%),++++ (50%≦ ++++),++ (5%≦ ++ <25%),+ (LOQ≦ + <5%),+ (LOQ≦ + <5%),+ (LOQ≦ + <5%),++ (5%≦ ++ <25%)
"CNCC1OCCCn2nc3ccccc3c21.Cl (centres unmarked) [Compound 51, 1-(4,5-dihydro-1H,3H-[1,4]oxazepino[4,3-b]indazol-1-yl)-N-methylmethanaminium chloride]",++ (5%≦ ++ <25%),+ (LOQ≦ + <5%),++ (5%≦ ++ <25%),+ (LOQ≦ + <5%),+++ (25%≦ +++ <50%),+ (LOQ≦ + <5%),+ (LOQ≦ + <5%),+ (LOQ≦ + <5%),+ (LOQ≦ + <5%),+ (LOQ≦ + <5%)
"CNC[C@H]1OCCn2nc3ccsc3c21 [Compound 69, (R)-1-(6,7-dihydro-9H-thieno[3′,2′:3,4]pyrazolo[5,1-c][1,4]oxazin-9-yl)-N-methylmethanamine]",+ (LOQ≦ + <5%),+ (LOQ≦ + <5%),++ (5%≦ ++ <25%),+ (LOQ≦ + <5%),++ (5%≦ ++ <25%),+ (LOQ≦ + <5%),+ (LOQ≦ + <5%),+ (LOQ≦ + <5%),+ (LOQ≦ + <5%),++ (5%≦ ++ <25%)
"CN(C)C[C@@H]1OCCn2nc3ccccc3c21 [Compound 3, (S)-(3,4-dihydro-1H-[1,4]oxazino[4,3-b]indazol-1-yl)-N,N-dimethylmethanaminium chloride]",+ (LOQ≦ + <5%),+ (LOQ≦ + <5%),+ (LOQ≦ + <5%),+ (LOQ≦ + <5%),++ (5%≦ ++ <25%),+ (LOQ≦ + <5%),+ (LOQ≦ + <5%),++ (5%≦ ++ <25%),+ (LOQ≦ + <5%),+++ (25%≦ +++ <50%)
"CC1(CN)OCCn2nc3ccccc3c21.Cl (centres unmarked) [Compound 39, (1-methyl-3,4-dihydro-1H-[1,4]oxazino[4,3-b]indazol-1-yl)methanaminium chloride]",+ (LOQ≦ + <5%),+ (LOQ≦ + <5%),++ (5%≦ ++ <25%),+ (LOQ≦ + <5%),++ (5%≦ ++ <25%),+ (LOQ≦ + <5%),+ (LOQ≦ + <5%),+ (LOQ≦ + <5%),+ (LOQ≦ + <5%),+ (LOQ≦ + <5%)

# Same assay, conditions: i.p. 15 min before behavioral test; 3 doses, most efficacious dose(s) presented
row,SMILES,XG: anxiogenic (probability of class match)
1,"Cl.NCC1OCCCn2nc3ccccc3c21 (centres unmarked) [Compound 56, (4,5-dihydro-1H,3H-[1,4]oxazepino[4,3-b]indazol-1-yl)methanaminium chloride]",+ (LOQ≦ + <5%)
2,"c1ccc2c3n(nc2c1)CCOC3CN1CC1 (centres unmarked) [Compound 63, 1-(aziridin-1-ylmethyl)-3,4-dihydro-1H-[1,4]oxazino[4,3-b]indazole]",+ (LOQ≦ + <5%)
3,"CNCC1OCCn2nc3ccsc3c21.Cl (centres unmarked) [Compound 58, 1-(6,7-dihydro-9H-thieno[3′,2′:3,4]pyrazolo[5,1-c][1,4]oxazin-9-yl)-N-methylmethanaminium chloride]",+ (LOQ≦ + <5%)
4,"c1ccc2c3n(nc2c1)CCOC3CN1CCCC1 (centres unmarked) [Compound 19, 1-(pyrrolidin-1-ylmethyl)-3,4-dihydro-1H-[1,4]oxazino[4,3-b]indazole hydrogen chloride salt]",+ (LOQ≦ + <5%)
5,"CCN(C)CC1OCCCn2nc3ccccc3c21.Cl (centres unmarked) [Compound 53, N-((4,5-dihydro-1H,3H-[1,4]oxazepino[4,3-b]indazol-1-yl)methyl)-N-methylethanaminium chloride]",+ (LOQ≦ + <5%)
6,"CCN(C)CC1OCCn2nc3ccccc3c21.Cl (centres unmarked) [Compound 28, N-((3,4-dihydro-1H-[1,4]oxazino[4,3-b]indazol-1-yl)methyl)-N-methylethanaminium chloride]",+ (LOQ≦ + <5%)
7,"CNCC1OCCCn2nc3ccccc3c21.Cl (centres unmarked) [Compound 51, 1-(4,5-dihydro-1H,3H-[1,4]oxazepino[4,3-b]indazol-1-yl)-N-methylmethanaminium chloride]",+ (LOQ≦ + <5%)
8,"CNC[C@H]1OCCn2nc3ccsc3c21 [Compound 69, (R)-1-(6,7-dihydro-9H-thieno[3′,2′:3,4]pyrazolo[5,1-c][1,4]oxazin-9-yl)-N-methylmethanamine]",+ (LOQ≦ + <5%)
9,"CN(C)C[C@@H]1OCCn2nc3ccccc3c21 [Compound 3, (S)-(3,4-dihydro-1H-[1,4]oxazino[4,3-b]indazol-1-yl)-N,N-dimethylmethanaminium chloride]",+ (LOQ≦ + <5%)
10,"CC1(CN)OCCn2nc3ccccc3c21.Cl (centres unmarked) [Compound 39, (1-methyl-3,4-dihydro-1H-[1,4]oxazino[4,3-b]indazol-1-yl)methanaminium chloride]",+ (LOQ≦ + <5%)
